# Results reported in patent US20080026996A1, “Selective Vpac2 Receptor Reptide Agonists” (ELI LILLY AND COMPANY, priority 2004, published 2008).
# Read-outs that look alike come from different tables or passages of the source. Where a SMILES comes first, the peptide text is derived from it. Where no end group is shown, it is not given here. [ ]: non-standard residue; d: D form. The star is where a group is joined. Hexanoyl = CCCCCC(=O)*; Aib = CC(C)(N)C(=O)O
# What was measured:
# rat PAC1 receptor = molecular target: T1, rat PAC1 receptor (Rattus norvegicus, UniProt P32215); experiment: Binding on recombinant rat PAC1 receptor expressed in CHO cells; conditions: maximal concentration tested 10 μM peptide
# T1 construct: expressed in transfected cells; host or cells: CHO cells, crude membranes
# T1 sequence (P32215 20-523): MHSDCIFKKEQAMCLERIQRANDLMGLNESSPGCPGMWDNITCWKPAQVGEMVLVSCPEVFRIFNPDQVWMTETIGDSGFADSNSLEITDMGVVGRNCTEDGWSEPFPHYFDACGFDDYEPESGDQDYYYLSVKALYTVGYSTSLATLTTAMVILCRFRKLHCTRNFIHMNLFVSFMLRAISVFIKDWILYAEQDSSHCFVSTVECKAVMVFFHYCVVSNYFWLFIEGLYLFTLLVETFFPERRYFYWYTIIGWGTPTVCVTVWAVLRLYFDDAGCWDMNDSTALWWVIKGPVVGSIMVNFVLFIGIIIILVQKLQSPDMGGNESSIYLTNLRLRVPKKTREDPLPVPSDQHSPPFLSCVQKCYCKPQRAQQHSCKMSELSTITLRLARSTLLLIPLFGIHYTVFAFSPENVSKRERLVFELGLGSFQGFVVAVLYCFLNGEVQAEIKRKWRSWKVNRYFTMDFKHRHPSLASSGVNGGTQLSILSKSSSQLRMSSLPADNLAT
# Method: (§1) All studies are performed on crude membranes prepared from three different cell cultures expressing the different recombinant receptors, using methodology that is known in the literature. Duplicate values are obtained for each assay.
# in vivo = conditions: Wistar, rat, iv
# Method: An IVGTT with glucose is given immediately after T=0 to 6 animals per condition. Samples are taken at 0, 2, 4, 6, and 10 minutes after injection.
# For cell handling, Plate 50,000 cells/well and keep in culture over night. Wash cell twice in PBS and add 50 μl/well stimulation medium consisting of PBS+1.2 MgCl2, 1.3 CaCl2, 2 glucose and 0.5 IBMX. Incubate 15 minutes and add 50 μl/well of the plasma samples (see layout below). Incubate 30 minutes, remove the supernatant and proceed as normal with the DiscoveRx assay. Prepare plates in duplicate. Protease and peptidase inhibitor are present in all plasma samples.
# rat VPAC2 receptor [1] = molecular target: T2, rat VPAC2 receptor (Rattus norvegicus, UniProt P35000); experiment: Competition binding on recombinant rat VPAC2 receptor expressed in CHO cells, 125I-RO 25-1553 tracer; design: expressed in transfected cells; host or cells: CHO cells, crude membranes; conditions: for VPAC1/VPAC2 ratio between the IC50 values (index of selectivity): rat receptors, binding
# T2 sequence (P35000 23-437): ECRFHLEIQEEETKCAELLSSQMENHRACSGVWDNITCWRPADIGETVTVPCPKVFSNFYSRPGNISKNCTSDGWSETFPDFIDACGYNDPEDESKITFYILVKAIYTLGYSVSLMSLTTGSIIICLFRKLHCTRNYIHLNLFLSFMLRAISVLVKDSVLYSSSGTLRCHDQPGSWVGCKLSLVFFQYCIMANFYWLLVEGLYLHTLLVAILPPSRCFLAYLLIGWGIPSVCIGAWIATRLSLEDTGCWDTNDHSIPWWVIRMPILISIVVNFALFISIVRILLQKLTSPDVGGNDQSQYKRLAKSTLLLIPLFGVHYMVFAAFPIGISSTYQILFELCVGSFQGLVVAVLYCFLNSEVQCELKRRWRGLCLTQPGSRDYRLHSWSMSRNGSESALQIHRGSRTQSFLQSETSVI
# Method: The peptide samples are stored frozen and thawed prior to the assay. […] All peptide sample and reference compound dilutions are performed in PBS. Peptides solutions are kept in the cold room for four days. Stock solutions are stored at −80° C. New dilution curves are prepared every week.
# Each assay is done in duplicate and performed on two different membrane preparations.
# rat VPAC1 receptor = molecular target: T3, rat VPAC1 receptor (Rattus norvegicus, UniProt P30083); experiment: Adenylate cyclase activation on membrane preparations expressing rat VPAC1 receptor; format: biochemical; design: expressed in transfected cells; host or cells: CHO cells, crude membranes; conditions: for VPAC1 cAMP max: maximal increase in cyclic AMP production (over basal) per minute and per mg protein
# T3 sequence (P30083 31-459): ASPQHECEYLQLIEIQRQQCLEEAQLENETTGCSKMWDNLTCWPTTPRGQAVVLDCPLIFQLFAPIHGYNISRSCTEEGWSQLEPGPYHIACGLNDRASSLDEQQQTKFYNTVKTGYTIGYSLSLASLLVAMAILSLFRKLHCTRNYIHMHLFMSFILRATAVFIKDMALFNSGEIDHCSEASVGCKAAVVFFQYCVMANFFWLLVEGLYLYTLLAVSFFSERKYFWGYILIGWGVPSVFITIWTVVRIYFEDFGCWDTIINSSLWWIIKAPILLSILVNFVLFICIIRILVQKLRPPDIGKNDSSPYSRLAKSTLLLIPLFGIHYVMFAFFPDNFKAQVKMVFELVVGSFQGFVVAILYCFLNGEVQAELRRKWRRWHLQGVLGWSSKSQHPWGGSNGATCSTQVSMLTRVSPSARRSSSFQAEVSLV
# Method: as §1
# (§2) The selectivity of the VPAC2 receptor peptide agonists of the present invention are tested on the rat VPAC1 and VPAC2 receptors recombinantly expressed in CHO cells. The compound of the invention were evaluated in receptor binding & adenylate cyclase activation assays.
# (§3) Dose-effect curves of adenylate cyclase activation were generated using the VPAC2 receptor peptide agonists (10^−11 to 10^−6 M, two concentrations per log) of the present invention.
# Adenylate cyclase activity was determined by the procedure of Salomon et al. (1974), A highly sensitive adenylate cyclase assay. Analytical Biochemistry 58 (1974. Membrane proteins ([…]) are incubated in a total volume of […] containing 0.5 mM [^32P]-ATP, 10 µM GTP, 5 mM MgCl2, 0.5 mM EGTA, 1 mM cAMP, 1 mM theophylline, 10 mM phospho(enol)pyruvate, […] pyruvate kinase and 30 mM Tris-HCl at a final pH of 7.8. The reaction is initiated by membrane addition and is terminated after 15 min incubation at 37° C. by addition of 0.5 ml of 0.5% sodium dodecyl-sulfate solution containing 0.5 mM ATP, 0.5 mM cAMP and […] [^3H]-cAMP. cAMP was separated from ATP by two successive chromatographies on Dowex 50Wx8 and neutral alumina.
# rat VPAC2 receptor [2] = molecular target: T2, rat VPAC2 receptor; experiment: Adenylate cyclase activation on membrane preparations expressing rat VPAC2 receptor; format: biochemical; design: expressed in transfected cells; host or cells: CHO cells, crude membranes; conditions: for VPAC2 cAMP max: maximal increase in cyclic AMP production (over basal) per minute and per mg protein; for VPAC1/VPAC2 ratio of EC50: rat receptors
# Method: as §1, §2, §3
# [3] = Rat serum stability studies (remaining active peptide by DiscoveRx cAMP on CHO-VPAC2 cells); format: in vitro ADME
# Summary of the method: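 EC50 from a DiscoveRx cAMP read-out on CHO-VPAC2 cells indexes how much peptide stays active after 18 h in rat serum at 37° C without aprotinin, against an aprotinin-protected 4° C aliquot.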
# rat VPAC2 receptor [4] = molecular target: T2, rat VPAC2 receptor; experiment: DiscoveRx in vitro potency, CHO-PO cells transiently transfected with rat VPAC 2 receptor DNA; format: cell-based; design: expressed in transfected cells; host or cells: CHO-PO, transient
# Method: Also, the cells are washed twice. […] The stimuli are present for 30 minutes. Then, the assay buffer is gently removed.
# [5] = IC50 of tracer inhibition, 125I-RO 25-1553, with standard error, read-out: RAT VPAC2 IC50 (log M) (converted)
# [6] = adenylate cyclase activation, rat VPAC1 membranes, with standard error, read-out: VPAC1 EC50 (log M) (converted)
# [7] = adenylate cyclase activation, rat VPAC2 membranes, with standard error, read-out: VPAC2 EC50 (log M) (converted)
Compound,binding (tracer displacement) (rat PAC1 receptor),AUC(0-t) (in vivo; 10 ug/kg) [nM·h],Cmax (in vivo; 10 ug/kg) [nM],half-life (in vivo; 10 ug/kg) [min],IC50 (rat VPAC2 receptor [1]; [5]) [nM],VPAC1/VPAC2 ratio between the IC50 values (index of selectivity) (rat VPAC2 receptor [1]),EC50 (rat VPAC1 receptor; [6]) [nM],VPAC1 cAMP max (rat VPAC1 receptor),EC50 (rat VPAC2 receptor [2]; [7]) [nM],VPAC2 cAMP max (rat VPAC2 receptor [2]),VPAC1/VPAC2 ratio of EC50 (rat VPAC2 receptor [2]; adenylate cyclase activation),Rat Serum Stability (estimated purity in % after 18 hours) [3] [%],EC50 (rat VPAC2 receptor [4]) [nM],other results
Hexanoyl-HSDAVFTDNYTRLRKQVAAKKYLQSIKNKRYGGPSSGAPPPS [Agonist P31],incomplete tracer displacement,0.308,4.37,12,0.385,546,25.2,200 ± 13,0.145,134 ± 12,174,–,–,–
H-MHSDAVFTDNYTRLRKQVAAKKYLQSIKNKRYGGPSSGAPPPS [Agonist P104],incomplete tracer displacement,–,–,–,–,977,–,195 ± 18,–,129 ± 19,184,–,–,"Rat Serum Stability (estimated purity in % after 18 hours) ([3]; 10 μM peptide in rat serum, 37° C., 18 hours, versus 4° C. aliquot with aprotinin): 1.01%; IC50 (rat VPAC2 receptor [1]): 1.8 nM; EC50 (rat VPAC1 receptor): 186 nM; EC50 (rat VPAC2 receptor [2]): 1.01 nM"
Hexanoyl-HSDAVFTDNYTRLR[Aib]QVAAK[Aib]YLQSIKNKRYGGPSSGAPPPS [Agonist P264],–,0.06,0.96,1.3,–,–,–,–,–,–,–,19.22,0.1,Rat Serum Stability (Estimated purity in % after 72 hours) [3]: 0.9%
Hexanoyl-HSDAVFTDNYTRLR[Aib]QVAA[Aib]KYLQSIKNKRYGGPSSGAPPPS [Agonist P261],–,0.898,12.1,3.2,0.355,363,12.6,126,0.0631,78.5,200,27.06,0.04,–
Hexanoyl-HSDAVFTDNYTRLLAKLALQKYLQSIKNKRYGGPSSGAPPPS [Agonist P119],incomplete tracer displacement,–,–,–,0.618,47,2.9,207 ± 13,0.0912,133 ± 18,32,–,–,–
CCCCCC(=O)N[C@@H](Cc1c[nH]cn1)C(=O)N[C@@H](CO)C(=O)N[C@@H](CC(=O)O)C(=O)N[C@@H](C)C(=O)N[C@H](C(=O)N[C@@H](Cc1ccccc1)C(=O)N[C@H](C(=O)N[C@@H](CC(=O)O)C(=O)N[C@@H](CC(N)=O)C(=O)N[C@@H](Cc1ccc(O)cc1)C(=O)N[C@H](C(=O)N[C@@H](CCCNC(=N)N)C(=O)N[C@@H](CC(C)C)C(=O)N[C@@H](CCCNC(=N)N)C(=O)NC(C)(C)C(=O)N[C@@H](CCC(N)=O)C(=O)N[C@@H](CC(C)C)C(=O)N[C@@H](C)C(=O)N[C@@H](C)C(=O)NC(C)(C)C(=O)N[C@@H](CCCCN)C(=O)N[C@@H](Cc1ccc(O)cc1)C(=O)N[C@@H](CC(C)C)C(=O)N[C@@H](CCC(N)=O)C(=O)N[C@@H](CO)C(=O)N[C@H](C(=O)N[C@@H](CCCCN)C(=O)N[C@@H](CC(N)=O)C(=O)N[C@@H](CCCCN)C(=O)NCC(=O)NCC(=O)N1CCC[C@H]1C(=O)N[C@@H](CO)C(=O)N[C@@H](CO)C(=O)NCC(=O)N[C@@H](C)C(=O)N1CCC[C@H]1C(=O)N1CCC[C@H]1C(=O)N1CCC[C@H]1C(=O)N[C@@H](CO)C(=O)O)[C@@H](C)CC)[C@@H](C)O)[C@@H](C)O)C(C)C [Agonist P292] (Hexanoyl-HSDAVFTDNYTRLR[Aib]QLAA[Aib]KYLQSIKNKGGPSSGAPPPS-OH; C-terminus assumed),–,0.688,5.37,5.5,0.759,269,11.5,124,0.115,79.1,100,33.43,0.07,AUC(0-t) (in vivo; 0.5 ug/kg): 0.0167 nM·h; Cmax (in vivo; 0.5 ug/kg): 0.12 nM; half-life (in vivo; 0.5 ug/kg): 15 min
